Marks after values point to notes of the source that are not given here.
Test: Determination of bio-accumulation: urinary clearance pharmacokinetic study in rats
Type: in vivo, male Sprague Dawley rats
Conditions: oral gavage; for Compound-related Effects: clinical observation and gross necropsy 96 hours post-dose; for T½: elimination via urine, exponential least squares curve fitting of concentration in urine
[1] = 73 micro Moles per kg body weight
[2] = 73 micro Moles per kg body weight, recovered in urine up to 96 h
[3] = 73 micro Moles per kg, based on elimination of the major metabolite C3F7—O—CHFCOO−, no parent compound in urine

Structure (SMILES) | T½ [1] [h] | % Recovery (96 h) [2] [%] | % Recovery (96 h) [3] | T½ (h) [3] | Compound-related Effects [1]
N.O=C(O)C(F)(F)C(F)(F)C(F)(F)C(F)(F)C(F)(F)C(F)(F)C(F)(F)F [Compound C-1, C7F15COONH4, reference compound] | ~550 | 6 |  |  | Hepatomegaly
N.O=C(O)C(F)(F)OC(F)(F)C(F)(OC(F)(F)C(F)(F)C(F)(F)F)C(F)(F)F (centres unmarked) [Compound C-3, C3F7—O—CF(CF3)—CF2—O—CF2—COONH4, reference compound] | 95 | 5 |  |  | Hepatomegaly
N.O=C(O)C(F)(F)OC(F)(F)C(F)(F)C(F)(F)F [Compound 5, C3F7—O—CF2—COONH4] | 11 | 97 |  |  | 
N.O=C(O)C(F)(F)C(F)(F)C(F)(F)OC(F)C(F)(F)F (centres unmarked) [Compound 15, CF3—CFH—O—(CF2)3—COONH4] | 8 | 95 |  |  | 
N.O=C(O)C(F)(F)OC(F)(F)OC(F)(F)OC(F)(F)F [Compound 3, CF3—OCF2—OCF2—OCF2—COONH4] | 12 | 100 |  |  | 
N.O=C(O)C(F)(F)C(F)OC(F)(F)C(F)(F)C(F)(F)OC(F)(F)F (centres unmarked) [Compound 11, CF3—O—CF2—CF2—CF2—O—CHF—CF2—COONH4] | 12 | 84 |  |  | 
N.O=C(O)COC(F)(F)C(F)OC(F)(F)C(F)(F)C(F)(F)F (centres unmarked) [Compound 16, C3F7—O—CFH—CF2—O—CH2—COONH4] |  |  | 65* % | 13* h | 
N.O=C(O)C(F)(F)C(F)OC(F)(F)C(F)(F)C(F)(F)F (centres unmarked) [Compound 13, C3F7—O—CFH—CF2COONH4] | 11 | 94 |  |  | 
N.O=C(O)C(F)(F)OC(F)(F)C(F)(F)OC(F)(F)C(F)(F)F [Compound 10, C2F5—O—CF2—CF2—O—CF2—COONH4] | 10 | 99 |  |  | 
N.O=C(O)C(F)(F)C(F)(F)OC(F)(F)C(F)(F)F [Compound 7, C2F5—O—CF2—CF2—COONH4] | 10 | 100 |  |  | 
N.O=C(O)C(F)(F)C(F)(F)OC(F)(F)F [Compound 6, CF3—O—CF2—CF2—COONH4] | 11 | 100 |  |  | 

Second part, led by results:

T½ [1] [h] | % Recovery (96 h) [2] [%] | % Recovery (96 h) [3] | T½ (h) [3] | Structure (SMILES) | Compound-related Effects [1]
 | 50 |  |  | N.O=C(O)C(F)(F)OC(F)(F)C(F)(F)C(F)(F)OC(F)(F)F [Compound 4, CF3—(OCF2)3—OCF2—COONH4] | 
24 | 32 |  |  | N.O=C(O)C(F)(F)C(F)(F)C(F)(F)C(F)(F)C(F)(F)OC(F)C(F)(F)F (centres unmarked) [Compound 14, CF3—CFH—O—(CF2)5—COONH4] | Hepatomegaly
12 | 96 |  |  | N.O=C(O)C(F)(F)OC(F)(F)OC(F)(F)F [Compound 2, CF3—OCF2—O—CF2—COONH4] | 
12 | 82 |  |  | N.O=C(O)C(F)(F)C(F)(F)OC(F)(F)C(F)(F)C(F)(F)F [Compound 8, C3F7—O—CF2—CF2—COONH4] | 
 | 73 |  |  | N.O=C(O)C(F)(F)OC(F)(F)C(F)(F)C(F)(F)OC(F)(F)F [Compound 1, CF3—O—(CF2)3—O—CF2—COONH4] | 
31 | 42 |  |  | N.O=C(O)C(F)(F)C(F)(F)OC(F)(F)C(F)(F)C(F)(F)C(F)(F)F [Compound 9, C4F9—O—CF2—CF2—COONH4] | Hepatomegaly
11 | 95 |  |  | N.O=C(O)C(F)OC(F)(F)C(F)(F)C(F)(F)OC(F)(F)F (centres unmarked) [Compound 12, CF3—O—CF2—CF2—CF2—O—CHF—COONH4] | 
